One series relates to Zymoseptoria tritici. Kind of series: Fungicidal activity: leaf blotch of wheat (SEPTTR), disease control on wheat seedlings. In kind it is in vivo. The note with it: LV activity at 121.5 g/H, wheat (variety Yuma). Here is the method: (§1) Technical grades of materials were dissolved in acetone, which were then mixed with nine volumes of water (H2O) containing 110 ppm Triton X-100. The fungicide solutions were applied onto wheat seedlings using an automated booth sprayer to run-off. All sprayed plants were allowed to air dry prior to further handling. All fungicides were evaluated using the aforementioned method for their activity vs. all target diseases, unless stated otherwise. Wheat leaf blotch and brown rust activity were also evaluated using track spray applications, in which case the fungicides were formulated as EC formulations, containing 0.1% Trycol 5941 in the spray solutions. Wheat plants (variety Yuma) were grown from seed in a greenhouse in 50% mineral soil/50% soil-less Metro mix until the first leaf was fully emerged, with 7-10 seedlings per pot. These plants were inoculated with an aqueous spore suspension of Zymoseptoria tritici either prior to or after fungicide treatments. After inoculation the plants were kept in 100% relative humidity (one day in a dark dew chamber followed by two to three days in a lighted dew chamber at 20° C.) to permit spores to germinate and infect the leaf. The plants were then transferred to a greenhouse set at 20° C. for disease to develop. When disease symptoms were fully expressed on the 1st leaves of untreated plants, infection levels were assessed on a scale of 0 to 100 percent disease severity. Percent disease control was calculated using the ratio of disease severity on treated plants relative to untreated plants.

The next series has as its system Puccinia triticina. Kind of series: Fungicidal activity: wheat brown rust (PUCCRT), disease control on wheat seedlings. The note with it: LV activity at 121.5 g/H, wheat (variety Yuma). Format: in vivo. As for the experimental part: as §1, with “plants. Wheat plants (variety Yuma) were grown from seed in a greenhouse in 50% mineral soil/50% soil-less Metro mix until the first leaf was fully emerged, with 7-10 seedlings per pot. These plants were inoculated with an aqueous spore suspension of Puccinia triticina either prior to or after fungicide treatments. After inoculation the plants were kept in a dark dew room at 22° C. with 100% relative humidity overnight to permit spores to germinate and infect the leaf. The plants were then transferred to a greenhouse set at 24° C. for disease to develop. Fungicide formulation, application and disease assessment followed the procedures as described in the Example A. Results of the evaluations are shown below in Table 4.” for “plants.”

In a further series the test system is Phakopsora pachyrhizi. As to the kind of experiment: Fungicidal activity: Asian soybean rust (PHAKPA), disease control on soybean seedlings. In kind it is in vivo. The conditions noted are these: soybean (variety Williams 82). Here is the method:
Technical grades of materials were dissolved in acetone, which were then mixed with nine volumes of H2O containing 0.011% Tween 20. The fungicide solutions were applied onto soybean seedlings using an automated booth sprayer to run-off. All sprayed plants were allowed to air dry prior to further handling. Soybean plants (variety Williams 82) were grown in soil-less Metro mix, with one plant per pot. Two week old seedlings were used for testing. Plants were inoculated either 3 days prior to or 1 day after fungicide treatments. Plants were incubated for 24 h in a dark dew room at 22° C. and 100% relative humidity then transferred to a growth room at 23° C. for disease to develop. Disease severity was assessed on the sprayed leaves.

Setting [1] is: 24 h, 1 Day Protectant, read-out: SEPTTR 1DP disease control rating.
The mark [2] stands for this setting: 72 h, 3 Day Curative, read-out: SEPTTR 3DC disease control rating.
Setting [3] is: 24 h, 1 Day Protectant, read-out: PUCCRT 1DP disease control rating.
The mark [4] stands for this setting: 72 h, 3 Day Curative, read-out: PUCCRT 3DC disease control rating.
Where [5] appears, read: 24 h, 1 Day Protectant, read-out: PHAKPA 1DP disease control rating.
[6] abbreviates: 72 h, 3 Day Curative, read-out: PHAKPA 3DC disease control rating.

Read-outs that look alike come from different tables or passages of the source.

Drawing on patent US10034477B2, “Pyrido-1,3-oxazine-2,4-dione compounds with fungicidal activity” (Dow AgroSciences LLC, priority 2016, dated 2018), this text covers pest or weed control and melting point for eleven compounds.

Take `COc1ccnc2c(=O)n([C@@H](C)C(=O)O[C@@H](C)[C@H](Oc3cccc(F)c3)C(C)C)c(=O)oc12` [Compound 24]: the pest or weed control at 121.5 g/ha in the series with Zymoseptoria tritici (setting [1]) was not above 80%; with Zymoseptoria tritici (setting [2]), more than 80%; with Puccinia triticina (setting [3]) it was more than 80%; in the series on Puccinia triticina (setting [4]), more than 80%. Besides, the pest or weed control at 25 ppm with Phakopsora pachyrhizi (setting [5]) was more than 80%; in the series with Phakopsora pachyrhizi (setting [6]) it was not above 80%.

Turning to `COc1ccc(C(c2ccc(OC)cc2)[C@H](C)OC(=O)[C@H](C)n2c(=O)oc3c(OC)ccnc3c2=O)cc1` [Compound 18], the pest or weed control at 121.5 g/ha in the series with Zymoseptoria tritici (setting [1]) is more than 80%; in the series on Zymoseptoria tritici (setting [2]), more than 80%; in the series with Puccinia triticina (setting [3]), more than 80%; in the series on Puccinia triticina (setting [4]), not above 80%. The pest or weed control at 25 ppm in the series on Phakopsora pachyrhizi (setting [5]) and in the series with Phakopsora pachyrhizi (setting [6]) was not above 80% in each case.

Consider `COc1ccnc2c(=O)n([C@@H](C)C(=O)O[C@@H](C)[C@@H](c3ccccc3)c3ccc(C(F)(F)F)cc3)c(=O)oc12` [Compound 28], for which the pest or weed control at 121.5 g/ha in the series on Zymoseptoria tritici (setting [1]) is more than 80%; in the series with Zymoseptoria tritici (setting [2]), more than 80%; in the series with Puccinia triticina (setting [3]), not above 80%; in the series on Puccinia triticina (setting [4]), not above 80%. In addition, in the series with Phakopsora pachyrhizi (setting [6]), the pest or weed control at 25 ppm is not above 80%.

Turning to `COc1ccnc2c(=O)n([C@@H](C)C(=O)O[C@H](C(C)C)[C@H](C)Oc3ccc(C)cc3)c(=O)oc12` [Compound 30], the pest or weed control at 121.5 g/ha with Zymoseptoria tritici (setting [1]) is not above 80%; in the series with Zymoseptoria tritici (setting [2]), not above 80%; in the series on Puccinia triticina (setting [3]), more than 80%; in the series with Puccinia triticina (setting [4]), not above 80%. In addition, in the series with Phakopsora pachyrhizi (setting [5]), the pest or weed control at 25 ppm is not above 80%.

Consider `COc1cc(Cl)ccc1C(c1ccc(Cl)cc1OC)[C@H](C)OC(=O)[C@H](C)n1c(=O)oc2c(OC)ccnc2c1=O` [Compound 26], for which the pest or weed control at 121.5 g/ha in the series with Zymoseptoria tritici (setting [1]), with Zymoseptoria tritici (setting [2]) and in the series with Puccinia triticina (setting [3]) was more than 80% each time. Further, the pest or weed control at 25 ppm with Phakopsora pachyrhizi (setting [5]) was not above 80%.

For the compound `COc1ccnc2c(=O)n([C@@H](C)C(=O)O[C@@H](C)[C@H](Oc3ccccc3Cl)c3ccccc3)c(=O)oc12` [Compound 21], the figures for the pest or weed control at 121.5 g/ha in the series on Zymoseptoria tritici (setting [1]), with Zymoseptoria tritici (setting [2]) and with Puccinia triticina (setting [3]) were more than 80%, not above 80% and more than 80%, respectively. For the same compound, the pest or weed control at 25 ppm in the series with Phakopsora pachyrhizi (setting [6]) is not above 80%.

Take `COc1ccnc2c(=O)n([C@@H](C)C(=O)O[C@@H](C)C(c3ccc(C)cc3)c3ccc(C)cc3)c(=O)oc12` [Compound 32, (S)-1,1-di-p-tolylpropan-2-yl-(S)-2-(8-methoxy-2,4-dioxo-2H-pyrido[2,3-e][1,3]oxazin-3(4H)-yl)propanoate]: the pest or weed control at 121.5 g/ha was more than 80% with Zymoseptoria tritici (setting [1]), more than 80% in the series with Zymoseptoria tritici (setting [2]), more than 80% in the series on Puccinia triticina (setting [3]) and not above 80% in the series on Puccinia triticina (setting [4]). Further, the pest or weed control at 25 ppm in the series with Phakopsora pachyrhizi (setting [5]) and in the series with Phakopsora pachyrhizi (setting [6]) was not above 80% in each case.

Consider `COc1ccnc2c(=O)n([C@@H](C)C(=O)O[C@@H](C)C(c3ccc(Cl)cc3)c3ccc(Cl)cc3)c(=O)oc12` [Compound 27], for which the pest or weed control at 121.5 g/ha is more than 80% with Zymoseptoria tritici (setting [1]), more than 80% with Zymoseptoria tritici (setting [2]) and not above 80% in the series with Puccinia triticina (setting [3]). In addition, the pest or weed control at 25 ppm with Phakopsora pachyrhizi (setting [5]) and in the series on Phakopsora pachyrhizi (setting [6]) was not above 80% in each case.

Compound `COc1ccnc2c(=O)n([C@@H](C)C(=O)O[C@@H](C)C(c3ccc(F)cc3)c3ccc(F)cc3)c(=O)oc12` [Compound 1] registered a melting point of 68 to 84 °C. Moreover, in the series with Zymoseptoria tritici (setting [1]), the pest or weed control at 121.5 g/ha was more than 80%. Also, the pest or weed control at 121.5 g/ha in the series with Zymoseptoria tritici (setting [2]) was more than 80%. Also, the pest or weed control at 121.5 g/ha with Puccinia triticina (setting [3]) is more than 80%. For the same compound, in the series with Puccinia triticina (setting [4]), the pest or weed control at 121.5 g/ha was not above 80%. Moreover, the pest or weed control at 25 ppm in the series on Phakopsora pachyrhizi (setting [5]) is not above 80%.

Turning to `CCC[C@@H](Oc1ccc(C)cc1)[C@H](C)OC(=O)[C@H](C)n1c(=O)oc2c(OC)ccnc2c1=O` [Compound 31], the figures for the pest or weed control at 121.5 g/ha with Zymoseptoria tritici (setting [2]), with Puccinia triticina (setting [3]) and with Puccinia triticina (setting [4]) were not above 80%, more than 80% and not above 80%, respectively. Besides, the pest or weed control at 25 ppm in the series with Phakopsora pachyrhizi (setting [5]) and in the series on Phakopsora pachyrhizi (setting [6]) was not above 80% each time.

As for `COc1ccnc2c(=O)n([C@@H](C)C(=O)O[C@@H](C)[C@@H](c3ccc(C)cc3)c3ccc(F)cc3C)c(=O)oc12` [Compound 33], the pest or weed control at 121.5 g/ha with Zymoseptoria tritici (setting [1]) is more than 80%; in the series on Zymoseptoria tritici (setting [2]), more than 80%; in the series with Puccinia triticina (setting [3]), more than 80%; with Puccinia triticina (setting [4]), not above 80%. Besides, the pest or weed control at 25 ppm is more than 80% in the series on Phakopsora pachyrhizi (setting [5]) and not above 80% in the series on Phakopsora pachyrhizi (setting [6]).
